Measurements taken from PMC7688903 (Frontiers in Microbiology, 2020).
In brackets after ≈: the same amount, converted by molar mass. Read-outs that look alike come from different tables or passages of the source. Marks after values point to notes of the source that are not given here. Where a SMILES comes first, the peptide text is derived from it. Where no end group is shown, it is not given here. [ ]: non-standard residue; d: D form. hArg = N=C(N)NCCCC[C@H](N)C(=O)O; 2Thi = N[C@@H](Cc1cccs1)C(=O)O; Dab = NCC[C@H](N)C(=O)O; Dap = NC[C@H](N)C(=O)O

Key:
[1] = test system: E. coli ATCC 25922; type: cell-based, Escherichia coli
Procedure: (§1) The antimicrobial activities of the peptides were tested against E. coli ATCC 25922, P. aeruginosa ATCC 27853, carbapenem-resistant P. aeruginosa SIPI-012, A. baumannii ATCC 19606, carbapenem-resistant A. baumannii SIPI-025, S. aureus ATCC 25923, and C. albicans ATCC 10231. The minimum inhibitory concentration (MIC) values were determined using the microdilution method according to Clinical and Laboratory Standards Institute guidelines ([CLSI, 2008], [2012]). The peptides were dissolved in 10 mM PB to a concentration of 1280 μg/mL as stock solutions.
(§2) For inoculum preparation of bacteria, morphologically similar colonies selected from fresh MH agar plates were transferred using a loop into approximately 10 mL of MH broth in a capped test tube and vortexed. The suspension was adjusted with MH broth to achieve a turbidity equivalent to a 0.5 McFarland standard (BaSO4 solution prepared spectrophotometrically). A working suspension was prepared by making a 1:15 dilution followed by a 1:20 dilution of the stock suspension with MH broth medium to obtain approximately 5 × 10^5 CFU/mL. For inoculum preparation of yeast, five fresh colonies of approximately 1 mm diameter were picked from 24-hour-old cultures of C. albicans and suspended in 5 mL of sterile 0.85% saline. The resulting suspension was vortexed and the cell density was adjusted by adding sufficient sterile saline to achieve a turbidity equivalent to a 0.5 McFarland standard. A working suspension was prepared by making a 1:100 dilution followed by a 1:20 dilution of the stock suspension with RPMI 1640 broth medium to obtain 0.5 × 10^3 to 2.5 × 10^3 CFU/mL. Intermediate twofold dilutions of the peptides were prepared in MH broth and RPMI 1640 medium, and 90 μL aliquots were added to each well in addition to 10 μL of the inoculum prepared above.
(§3) Each plate included a growth control well and a sterility (uninoculated) control well. Colistin, vancomycin hydrochloride, and amphotericin B were used as positive controls for gram-negative bacteria, gram-positive bacteria, and fungi, respectively. The bacterial and fungal plates were incubated at 37°C for 20 h and 35°C for 48 h, respectively, both under ambient atmosphere. The inhibition of microbial growth was assessed visually. The MICs were determined from independent triplicate assays.

[2] = test system: carbapenem-resistant A. baumannii (CRAB) SIPI-025; type: cell-based, Acinetobacter baumannii
Procedure: as §1, §2, §3

[3] = test system: A. baumannii ATCC 19606; type: cell-based, Acinetobacter baumannii
Procedure: as §1, §2, §3

[4] = test system: carbapenem-resistant P. aeruginosa (CRPA) SIPI-012; type: cell-based, Pseudomonas aeruginosa
Procedure: as §1, §2, §3

[5] = test system: P. aeruginosa ATCC 27853; type: cell-based, Pseudomonas aeruginosa
Procedure: as §1, §2, §3

[6] = test system: RAW 264.7 cells; experiment: Cell viability assay (MTT); type: cell-based, mouse; conditions: 1–128 μM peptide in DMEM with 4% FBS, 42 h, 595 nm, triplicate
Procedure: The peptides were dissolved in ddH2O to a concentration of 256 μM. RAW 264.7 cells were cultured in 100 μL of DMEM containing 10% FBS and seeded at a density of 1 × 10^4 cells in a 96-well culture plate. The plate was incubated at 37°C under 5% CO2 atmosphere overnight. After attaining 80% confluency, the cells were treated with various concentrations of the peptides (1–128 μM) dissolved in DMEM containing 4% FBS for 42 h. Cytotoxicity was determined using the MTT tetrazolium reduction assay and quantified spectrophotometrically at 595 nm using a SpectraMax i3x microplate reader. The cell viability was calculated with respect to control samples treated only with DMEM containing 4% FBS ([Khara et al., 2016]). Each test was done in triplicate and the concentration required for 50% inhibition of viability (IC50) was determined.

[7] = test system: S. aureus ATCC 25923; experiment: microbe, parasite or virus in culture; type: cell-based, Staphylococcus aureus; conditions: ATCC 25923, 20 h
How it was run: (§4)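 Inocula were set to 0.5 McFarland and diluted to ~5 × 10^5 CFU/mL (bacteria, MH broth) or 0.5 × 10^3 to 2.5 × 10^3 CFU/mL (yeast, RPMI 1640). Peptide twofold dilutions were added, plates incubated 20 h at 37°C or 48 h at 35°C, then scored by eye.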

[8] = test system: C. albicans ATCC 10231; experiment: microbe, parasite or virus in culture; type: cell-based, Candida albicans; conditions: ATCC 10231, 48 h
How it was run: as §4

[9] = test system: human erythrocytes; experiment: Hemolytic activity assay; type: cell-based; conditions: human RBC in PB, 37°C, 1 h, OD420, total lysis control 0.1% SDS, three technical replicates
Procedure: Whole blood was obtained from a healthy volunteer. The red blood cells (RBC) were then centrifuged (800 × g, 10 min), washed twice with PB, resuspended in 1 mL of PB, and incubated with various concentrations of the peptides (32–128 μM) at 37°C for 1 h. As a positive control, total lysis of the RBC was accomplished by incubation with 0.1% SDS. For each condition, three technical replicates were performed. After incubation, the RBC were centrifuged at 800 × g for 10 min and the amount of hemoglobin released into the supernatant was determined by measuring the optical density OD420 using a SpectraMax i3x microplate reader (Molecular Devices) ([Zaet et al., 2017]).

[10] = test system: proteases secreted by C. albicans ATCC 10231; experiment: in vitro; conditions: Candida albicans, C. albicans ATCC 10231 culture supernatant, pH 8
Procedure: (§5) The stabilities of the peptides toward proteases secreted by E. coli ATCC 25922, P. aeruginosa ATCC 27853, A. baumannii ATCC 19606, S. aureus ATCC 25923, and C. albicans ATCC 10231 were also examined. Microbial supernatants were prepared by resuspending single colonies of each strain in 20 mL of an appropriate culture medium followed by incubation at 37°C overnight. MH broth and 2% tryptone/2% dextrose were used as the culture media for bacteria and yeast, respectively. Each culture was then centrifuged at 12,000 × g for 10 min and the supernatant was adjusted to pH 8.0 with HCl or NaOH and then filtered through a 0.22 μm sterile filter membrane ([Zaet et al., 2017]). The peptides were then dissolved in the filtered supernatants to a concentration of 0.5 mg/mL, and the peptide-free supernatants were used as negative controls. The samples were incubated at 37°C for 24 h in a water bath and then analyzed by RP-HPLC as described above.

[11] = test system: proteases secreted by S. aureus ATCC 25923; experiment: in vitro; conditions: Staphylococcus aureus, S. aureus ATCC 25923 culture supernatant, pH 8
Procedure: as §5

[12] = test system: BALB/c mice; experiment: In vivo acute toxicity, single injection; set-up: species or system mouse; conditions: monitored 24 h
Procedure: Six-week-old mice (approximate weight: 18–20 g, SFP grade) were bred and maintained under specific pathogen-free conditions on a 12 h light/dark cycle. The peptides were dissolved in PBS (pH 7.4) and three mice were used for each dose. As a control, colistin was administered in a similar manner. The mice were monitored for 24 h and mice were weighed at the end of the experiment. The procedure was evaluated and approved by the Ethical Committee of Experimental Animals of the Chia Tai Tianqing Pharmaceutical Group in August 2019.
As summarized in Figure 6, a toxicity score was assigned as follows: no abnormalities = without signs; mild depression, poor motility, purple-black tail, and recovery in 1 h = mild signs; serious depression and poor motility even under stimulation = manifest signs; sudden death within 10 min = died of toxic effects.

[13] = test system: human plasma proteases; experiment: in vitro
[14] = test system: proteases secreted by P. aeruginosa ATCC 27853; experiment: in vitro; conditions: Pseudomonas aeruginosa, P. aeruginosa ATCC 27853 culture supernatant, pH 8
Procedure: as §5

[15] = test system: P. aeruginosa ATCC 9027; experiment: In vivo antibacterial activity, lethal intraperitoneal infection; conditions: BALB/c mice, lethal i.p. dose of P. aeruginosa ATCC 9027, 10 mg/kg i.p. at 1 and 8 h post-infection, n = 10
Procedure: The in vivo antibacterial activities of the peptides were evaluated in BALB/c mice using P. aeruginosa ATCC 9027 as a test strain. A total of 20 mice (6 weeks old, approximate weight: 18–20 g, SFP grade) were first used to measure the minimal lethal doses (MLD) with 5 mice for each inoculum. Cell numbers of selected strains were determined from the colony numbers from the plate count agar and four inocula (1 × 10^6, 5 × 10^6, 1 × 10^7, and 5 × 10^7 CFU/mouse) were administered via intraperitoneal injection. The minimal lethal dose was determined by measuring the mortality rate after 72 h. BALB/c mice were then injected intraperitoneally with a lethal dose of P. aeruginosa ATCC 9027. […] Colistin (10 mg/kg) was used as a positive control. The survival of the animals was monitored over 7 d.

[16] = carbapenem-resistant (CRAB) SIPI-025, 20 h
[17] = carbapenem-resistant (CRPA) SIPI-012, 20 h

| Compound | MIC ([1]; ATCC 25922, 20 h) | MIC [2, 16] | MIC ([3]; ATCC 19606, 20 h) | MIC [4, 17] | MIC ([5]; ATCC 27853, 20 h) | IC50 [6] | MIC [7] | MIC [8] | Hemolysis rate (%) ([9]; 64 μM) | Hemolysis rate (%) ([9]; 128 μM) | remaining at 24 h, 0.5 mg/mL [11] | further results |
| --- | --- | --- | --- | --- | --- | --- | --- | --- | --- | --- | --- | --- |
| CC(C)C[C@H](NC(=O)[C@H](Cc1ccc(O)cc1)NC(=O)[C@H](CCN)NC(=O)[C@H](CC(C)C)NC(=O)[C@H](CC(C)C)NC(=O)[C@H](CCN)NC(=O)[C@H](CCN)NC(=O)[C@H](Cc1ccccc1)NC(=O)[C@H](CC(C)C)NC(=O)[C@H](CCCCNC(=N)N)NC(=O)[C@@H](N)CCN)C(=O)N[C@@H](CCCCNC(=N)N)C(=O)N[C@@H](CCN)C(=O)N[C@@H](Cc1ccccc1)C(N)=O [UP13] (H-[Dab][hArg]LF[Dab][Dab]LL[Dab]YL[hArg][Dab]F-NH2) | 2 mg/L (≈ 1.13 µM) | 2 mg/L (≈ 1.13 µM) | 2 mg/L (≈ 1.13 µM) | 4 mg/L (≈ 2.26 µM) | 2 mg/L (≈ 1.13 µM) | 21.7 ± 4.14 µM | 0.5 mg/L (≈ 0.283 µM) | 4 mg/L (≈ 2.26 µM) | 41.03 ± 1.38% | ∼100.00* % | 78.5 ± 3.39% | remaining at 24 h, 0.5 mg/mL [10]: 34 ± 6.12% |
| KRLFKKLLKYLRKF-NH2 [Pep05] | 1 mg/L | 2 mg/L | 2 mg/L | 4 mg/L | 2 mg/L | 13.4 ± 2.85 µM | 1 mg/L | 4 mg/L | 34.39 ± 1.49% | 49.18 ± 2.01% | 22.2 ± 4.47% | signs of toxicity after intravenous injection ([12]; single i.v. dose, all tested doses (5, 10, 20 mg/kg), three mice per dose): no obvious abnormalities; metabolised at 2 h, 0.1 mg/mL [13]: > 40%; metabolised at 4 h, 0.1 mg/mL [13]: > 50% |
| CC(C)C[C@H](NC(=O)[C@H](Cc1ccc(O)cc1)NC(=O)[C@H](CCN)NC(=O)[C@H](CC(C)C)NC(=O)[C@H](CC(C)C)NC(=O)[C@H](CN)NC(=O)[C@H](CN)NC(=O)[C@H](Cc1ccccc1)NC(=O)[C@H](CC(C)C)NC(=O)[C@H](CCCCNC(=N)N)NC(=O)[C@@H](N)CN)C(=O)N[C@@H](CCCCNC(=N)N)C(=O)N[C@@H](CCN)C(=O)N[C@@H](Cc1cccs1)C(N)=O [UP11] (H-[Dap][hArg]LF[Dap][Dap]LL[Dab]YL[hArg][Dab][2Thi]-NH2) | 2 mg/L (≈ 1.15 µM) | 2 mg/L (≈ 1.15 µM) | 2 mg/L (≈ 1.15 µM) | 8 mg/L (≈ 4.62 µM) | 2 mg/L (≈ 1.15 µM) | 28.3 ± 5.8 µM | 1 mg/L (≈ 0.577 µM) | 4 mg/L (≈ 2.31 µM) | 95.65 ± 2.31 % | ∼100.00* % | 35.7 ± 3.82% | remaining at 24 h, 0.5 mg/mL [14]: 22.4 ± 1.72% |
| colistin [reference compound] |  |  |  |  |  |  |  |  |  |  |  | MIC ([1]; E. coli ATCC 25922, MH broth, 37°C, 20 h, visual, independent triplicate assays): 0.25 mg/L; MIC ([2]; CRAB SIPI-025, MH broth, 37°C, 20 h, visual, independent triplicate assays): 0.25 mg/L; MIC ([3]; A. baumannii ATCC 19606, MH broth, 37°C, 20 h, visual, independent triplicate assays): 0.25 mg/L; MIC ([4]; CRPA SIPI-012, MH broth, 37°C, 20 h, visual, independent triplicate assays): 1 mg/L; MIC ([5]; P. aeruginosa ATCC 27853, MH broth, 37°C, 20 h, visual, independent triplicate assays): 0.5 mg/L; survival rate ([15]; after 3 d): 100%; survival rate ([15]; after 7 d): 100%; signs of toxicity after intravenous injection ([12]; single i.v. dose 10 mg/kg, three mice): two out of three mice dying immediately; signs of toxicity after intravenous injection ([12]; single i.v. dose 20 mg/kg, three mice): all three mice dying |
